According to patent US20260250290A1 (BRISTOL-MYERS SQUIBB COMPANY, priority 2023, published 2026):
Structures can show the parent of a compound that is named as a salt.

Target: T1, full length SGK1 (Homo sapiens, UniProt O00141)
T1 construct: 125 μM full length SGK1 (Life Technologies Part #PR7358A); purchased Life Technologies PR7358A
T1 sequence (O00141 1-431): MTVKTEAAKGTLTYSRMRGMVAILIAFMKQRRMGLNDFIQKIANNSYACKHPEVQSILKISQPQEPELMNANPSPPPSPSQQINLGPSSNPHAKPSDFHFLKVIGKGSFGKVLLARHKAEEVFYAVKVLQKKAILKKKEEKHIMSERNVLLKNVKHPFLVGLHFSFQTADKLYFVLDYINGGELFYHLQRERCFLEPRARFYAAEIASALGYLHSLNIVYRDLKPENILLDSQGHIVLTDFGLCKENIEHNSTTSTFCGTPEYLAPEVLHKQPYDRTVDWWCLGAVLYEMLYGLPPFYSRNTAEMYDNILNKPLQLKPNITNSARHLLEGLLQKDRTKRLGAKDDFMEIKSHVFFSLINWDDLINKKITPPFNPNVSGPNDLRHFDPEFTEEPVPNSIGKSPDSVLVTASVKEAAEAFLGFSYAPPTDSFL
Assay: SGK1 inhibition Assay A (Caliper LabChip electrophoretic separation of fluorescent peptide substrate and phosphorylated product)
Assay type: biochemical
Conditions: Assay A; 20 μM ATP, 40 min incubation; read-out: SGK1 IC50

SMILES | IC50 [nM]
CS(=O)(=O)c1ccc(-c2cc(N3CCC[C@@H](NC(=O)c4cc(Cl)ns4)C3)c3c(N)ncnn23)cc1 [Example 72, (R)-N-(1-(4-amino-7-(4-(methylsulfonyl)phenyl)pyrrolo[2,1-f][1,2,4]triazin-5-yl)piperidin-3-yl)-3-chloroisothiazole-5-carboxamide, TFA] | 13
Cc1cc(C(=O)N[C@@H]2CCCN(c3cc(-c4ccc(S(C)(=O)=O)cc4)n4ncnc(N)c34)C2)sn1 [Example 73, (R)-N-(1-(4-amino-7-(4-(methylsulfonyl)phenyl)pyrrolo[2,1-f][1,2,4]triazin-5-yl)piperidin-3-yl)-3-methylisothiazole-5-carboxamide] | 8
CS(=O)(=O)c1ccc(-c2cc(N3CCC[C@@H](NC(=O)c4cc(Cl)no4)C3)c3c(N)ncnn23)cc1 [Example 74, (R)-N-(1-(4-amino-7-(4-(methylsulfonyl)phenyl)pyrrolo[2,1-f][1,2,4]triazin-5-yl)piperidin-3-yl)-3-chloroisoxazole-5-carboxamide, TFA] | 25
CS(=O)(=O)c1ccc(-c2cc(N3CCC[C@@H](NC(=O)c4cnn(C(F)F)c4)C3)c3c(N)ncnn23)cc1 [Example 75, (R)-N-(1-(4-amino-7-(4-(methylsulfonyl)phenyl)pyrrolo[2,1-f][1,2,4]triazin-5-yl)piperidin-3-yl)-1-(difluoromethyl)-1H-pyrazole-4-carboxamide, TFA] | 44
CS(=O)(=O)c1ccc(-c2cc(N3CCC[C@@H](NC(=O)c4cnn(CC(F)(F)F)c4)C3)c3c(N)ncnn23)cc1 [Example 76, (R)-N-(1-(4-amino-7-(4-(methylsulfonyl)phenyl)pyrrolo[2,1-f][1,2,4]triazin-5-yl)piperidin-3-yl)-1-(2,2,2-trifluoroethyl)-1H-pyrazole-4-carboxamide] | 53
CC(C)n1cc(C(=O)N[C@@H]2CCCN(c3cc(-c4ccc(S(C)(=O)=O)cc4)n4ncnc(N)c34)C2)cn1 [Example 77, (R)-N-(1-(4-amino-7-(4-(methylsulfonyl)phenyl)pyrrolo[2,1-f][1,2,4]triazin-5-yl)piperidin-3-yl)-1-isopropyl-1H-pyrazole-4-carboxamide, TFA] | 31
CS(=O)(=O)c1ccc(-c2cc(N3CCC[C@@H](NC(=O)c4cnn(C5CCOCC5)c4)C3)c3c(N)ncnn23)cc1 [Example 78, (R)-N-(1-(4-amino-7-(4-(methylsulfonyl)phenyl)pyrrolo[2,1-f][1,2,4]triazin-5-yl)piperidin-3-yl)-1-(tetrahydro-2H-pyran-4-yl)-1H-pyrazole-4-carboxamide] | 67
CCc1cccc(C(=O)N[C@@H]2CCCN(c3cc(-c4ccc(S(C)(=O)=O)cc4)n4ncnc(N)c34)C2)c1 [Example 79, (R)-N-(1-(4-amino-7-(4-(methylsulfonyl)phenyl)pyrrolo[2,1-f][1,2,4]triazin-5-yl)piperidin-3-yl)-3-ethylbenzamide, TFA] | 26
C=Cc1cccc(C(=O)N[C@@H]2CCCN(c3cc(-c4ccc(S(C)(=O)=O)cc4)n4ncnc(N)c34)C2)c1 [Example 80, (R)-N-(1-(4-amino-7-(4-(methylsulfonyl)phenyl)pyrrolo[2,1-f][1,2,4]triazin-5-yl)piperidin-3-yl)-3-vinylbenzamide] | 14
CC(C)c1cccc(C(=O)N[C@@H]2CCCN(c3cc(-c4ccc(S(C)(=O)=O)cc4)n4ncnc(N)c34)C2)c1 [Example 81, (R)-N-(1-(4-amino-7-(4-(methylsulfonyl)phenyl)pyrrolo[2,1-f][1,2,4]triazin-5-yl)piperidin-3-yl)-3-isopropylbenzamide] | 32
CS(=O)(=O)c1ccc(-c2cc(N3CCC[C@@H](NC(=O)c4cccc(C5CC5)c4)C3)c3c(N)ncnn23)cc1 [Example 82, (R)-N-(1-(4-amino-7-(4-(methylsulfonyl)phenyl)pyrrolo[2,1-f][1,2,4]triazin-5-yl)piperidin-3-yl)-3-cyclopropylbenzamide] | 15
CS(=O)(=O)c1ccc(-c2cc(N3CCC[C@@H](NC(=O)c4ccc5c(c4)CC5)C3)c3c(N)ncnn23)cc1 [Example 83, (R)-N-(1-(4-amino-7-(4-(methylsulfonyl)phenyl)pyrrolo[2,1-f][1,2,4]triazin-5-yl)piperidin-3-yl)bicyclo[4.2.0]octa-1(6),2,4-triene-3-carboxamide, TFA] | 48
Cc1ccc(C(=O)N[C@@H]2CCCN(c3cc(-c4ccc(S(C)(=O)=O)cc4)n4ncnc(N)c34)C2)cc1C [Example 84, (R)-N-(1-(4-amino-7-(4-(methylsulfonyl)phenyl)pyrrolo[2,1-f][1,2,4]triazin-5-yl)piperidin-3-yl)-3,4-dimethylbenzamide, TFA] | 19
CS(=O)(=O)c1ccc(-c2cc(N3CCC[C@@H](NC(=O)c4cccc(Br)c4)C3)c3c(N)ncnn23)cc1 [Example 85, (R)-N-(1-(4-amino-7-(4-(methylsulfonyl)phenyl)pyrrolo[2,1-f][1,2,4]triazin-5-yl)piperidin-3-yl)-3-bromobenzamide, TFA] | 27
CS(=O)(=O)c1ccc(-c2cc(N3CCC[C@@H](NC(=O)c4ccnc(Br)c4)C3)c3c(N)ncnn23)cc1 [Example 86, (R)-N-(1-(4-amino-7-(4-(methylsulfonyl)phenyl)pyrrolo[2,1-f][1,2,4]triazin-5-yl)piperidin-3-yl)-2-bromoisonicotinamide, TFA] | 9
Cc1ccc(C(=O)N[C@@H]2CCCN(c3cc(-c4ccc(S(C)(=O)=O)cc4)n4ncnc(N)c34)C2)s1 [Example 87, (R)-N-(1-(4-amino-7-(4-(methylsulfonyl)phenyl)pyrrolo[2,1-f][1,2,4]triazin-5-yl)piperidin-3-yl)-5-methylthiophene-2-carboxamide] | 2
CS(=O)(=O)c1ccc(-c2cc(N3CCC[C@@H](NC(=O)c4cccs4)C3)c3c(N)ncnn23)cc1 [Example 88, (R)-N-(1-(4-amino-7-(4-(methylsulfonyl)phenyl)pyrrolo[2,1-f][1,2,4]triazin-5-yl)piperidin-3-yl)thiophene-2-carboxamide, TFA] | 8
Cc1cc(C(=O)N[C@@H]2CCCN(c3cc(-c4ccc(S(C)(=O)=O)cc4)n4ncnc(N)c34)C2)sc1C [Example 89, (R)-N-(1-(4-amino-7-(4-(methylsulfonyl)phenyl)pyrrolo[2,1-f][1,2,4]triazin-5-yl)piperidin-3-yl)-4,5-dimethylthiophene-2-carboxamide] | 6
CS(=O)(=O)c1ccc(-c2cc(N3CCC[C@@H](NC(=O)c4cc5c(s4)CCCC5)C3)c3c(N)ncnn23)cc1 [Example 90, (R)-N-(1-(4-amino-7-(4-(methylsulfonyl)phenyl)pyrrolo[2,1-f][1,2,4]triazin-5-yl)piperidin-3-yl)-4,5,6,7-tetrahydrobenzo[b] thiophene-2-carboxamide] | 49
CCc1ccc(C(=O)N[C@@H]2CCCN(c3cc(-c4ccc(S(C)(=O)=O)cc4)n4ncnc(N)c34)C2)s1 [Example 91, (R)-N-(1-(4-amino-7-(4-(methylsulfonyl)phenyl)pyrrolo[2,1-f][1,2,4]triazin-5-yl)piperidin-3-yl)-5-ethylthiophone-2-carboxamide] | 10
CS(=O)(=O)c1ccc(-c2cc(N3CCC[C@@H](NC(=O)c4ccc(C5CC5)s4)C3)c3c(N)ncnn23)cc1 [Example 92, (R)-N-(1-(4-amino-7-(4-(methylsulfonyl)phenyl)pyrrolo[2,1-f][1,2,4]triazin-5-yl)piperidin-3-yl)-5-cyclopropylthiophene-2-carboxamide, TFA] | 10
CS(=O)(=O)c1ccc(-c2cc(N3CCC[C@@H](NC(=O)c4ccc(F)s4)C3)c3c(N)ncnn23)cc1 [Example 93, (R)-N-(1-(4-amino-7-(4-(methylsulfonyl)phenyl)pyrrolo[2,1-f][1,2,4]triazin-5-yl)piperidin-3-yl)-5-fluorothiophene-2-carboxamide] | 5
CS(=O)(=O)c1ccc(-c2cc(N3CCC[C@@H](NC(=O)c4ccc(Cl)s4)C3)c3c(N)ncnn23)cc1 [Example 94, (R)-N-(1-(4-amino-7-(4-(methylsulfonyl)phenyl)pyrrolo[2,1-f][1,2,4]triazin-5-yl)piperidin-3-yl)-5-chlorothiophene-2-carboxamide] | 3
CS(=O)(=O)c1ccc(-c2cc(N3CCC[C@@H](NC(=O)c4ccc(Br)s4)C3)c3c(N)ncnn23)cc1 [Example 95, (R)-N-(1-(4-amino-7-(4-(methylsulfonyl)phenyl)pyrrolo[2,1-f][1,2,4]triazin-5-yl)piperidin-3-yl)-5-bromothiophene-2-carboxamide, TFA] | 6
COc1ccc(C(=O)N[C@@H]2CCCN(c3cc(-c4ccc(S(C)(=O)=O)cc4)n4ncnc(N)c34)C2)s1 [Example 96, (R)-N-(1-(4-amino-7-(4-(methylsulfonyl)phenyl)pyrrolo[2,1-f][1,2,4]triazin-5-yl)piperidin-3-yl)-5-methoxythiophene-2-carboxamide] | 8
Cc1csc(C(=O)N[C@@H]2CCCN(c3cc(-c4ccc(S(C)(=O)=O)cc4)n4ncnc(N)c34)C2)c1 [Example 97, (R)-N-(1-(4-amino-7-(4-(methylsulfonyl)phenyl)pyrrolo[2,1-f][1,2,4]triazin-5-yl)piperidin-3-yl)-4-methylthiophene-2-carboxamide, TFA] | 3
CS(=O)(=O)c1ccc(-c2cc(N3CCC[C@@H](NC(=O)c4sccc4F)C3)c3c(N)ncnn23)cc1 [Example 98, (R)-N-(1-(4-amino-7-(4-(methylsulfonyl)phenyl)pyrrolo[2,1-f][1,2,4]triazin-5-yl)piperidin-3-yl)-3-fluorothiophene-2-carboxamide] | 14
